# From BindingDB's records for patent WO2022098970 (Eli Lilly, 2022)
# Columns and labels:
# Test in all cases: RET Enzyme Assay
# [1] = target: Proto-oncogene tyrosine-protein kinase receptor Ret (Homo sapiens, UniProt P07949)
# Protocol: (§1) Compounds of formulas I, la to lx, Ila to IIx, and/or Illa to IIIx are screened for their ability to inhibit wildtype, V804M, and G810S mutant RET kinase using CisBio s HTRF KinEASE -TK assay technology. N-terminal GST tagged recombinant human RET cytoplasmic domain (aa 658-end) from Eurofins (1.25 nM RET; Catalog No. 14-570M) or N-terminal GST tagged recombinant human V804M mutant RET cytoplasmic domain (aa 658-end) from Millipore (1.25 nM enzyme; Catalog No. 14-760) or N-Terminal GST-tagged recombinant human G810S (aa-658-end) (1.25 nM Enzyme; produced in insect cells) is incubated with 62.5 nM TK-substrate biotin (CisBio, part of Catalog No. 62TK0PEC) and 1 mM ATP along with test compound (0.4% final DMSO in the assay) in a IX Cisbuio enzymatic buffer consisting of […], 5 mM MgCh, 0.04% BSA and 0.05% Tween20 in a volume of 10 pL. Compounds are typically prepared in a threefold serial dilution in DMSO and added to the assay to give the appropriate final concentration. After a 40-60 min (40 min for V804M, 60 min for WT and G810S) incubation at 22 °C, the reaction is quenched by adding quench solution (10 pL) containing 7.8 nM Streptavidine-XL665 and 0.5X TK-ab-Cryptate in HTRF detection buffer (all from CisBio, part of Cat. No. 62TK0PEC). After a 60-80 min incubation (60 minutes for WT, 80 minutes for V804M and G810S) at 22 °C, the extent of reaction is determined using a PHERastar plate reader via HTRF detection at excitation/emission 337/665 nm. Percent of inhibition is calculated with 0% inhibition referring to control conditions containing no compound (0.4% DMSO only) and 100% inhibition represented by conditions containing no enzyme. The % inhibition values are fit to a 4 parameter logistic curve, and the determined IC5o value is defined as the estimated concentration of inhibitor at the inflexion point of the fitted curve.
# [2] = target: Proto-oncogene tyrosine-protein kinase receptor Ret [G810S] (Homo sapiens, UniProt P07949, G810S)
# Chain of Proto-oncogene tyrosine-protein kinase receptor Ret [G810S] (P07949 29-1114 G810S limits assumed): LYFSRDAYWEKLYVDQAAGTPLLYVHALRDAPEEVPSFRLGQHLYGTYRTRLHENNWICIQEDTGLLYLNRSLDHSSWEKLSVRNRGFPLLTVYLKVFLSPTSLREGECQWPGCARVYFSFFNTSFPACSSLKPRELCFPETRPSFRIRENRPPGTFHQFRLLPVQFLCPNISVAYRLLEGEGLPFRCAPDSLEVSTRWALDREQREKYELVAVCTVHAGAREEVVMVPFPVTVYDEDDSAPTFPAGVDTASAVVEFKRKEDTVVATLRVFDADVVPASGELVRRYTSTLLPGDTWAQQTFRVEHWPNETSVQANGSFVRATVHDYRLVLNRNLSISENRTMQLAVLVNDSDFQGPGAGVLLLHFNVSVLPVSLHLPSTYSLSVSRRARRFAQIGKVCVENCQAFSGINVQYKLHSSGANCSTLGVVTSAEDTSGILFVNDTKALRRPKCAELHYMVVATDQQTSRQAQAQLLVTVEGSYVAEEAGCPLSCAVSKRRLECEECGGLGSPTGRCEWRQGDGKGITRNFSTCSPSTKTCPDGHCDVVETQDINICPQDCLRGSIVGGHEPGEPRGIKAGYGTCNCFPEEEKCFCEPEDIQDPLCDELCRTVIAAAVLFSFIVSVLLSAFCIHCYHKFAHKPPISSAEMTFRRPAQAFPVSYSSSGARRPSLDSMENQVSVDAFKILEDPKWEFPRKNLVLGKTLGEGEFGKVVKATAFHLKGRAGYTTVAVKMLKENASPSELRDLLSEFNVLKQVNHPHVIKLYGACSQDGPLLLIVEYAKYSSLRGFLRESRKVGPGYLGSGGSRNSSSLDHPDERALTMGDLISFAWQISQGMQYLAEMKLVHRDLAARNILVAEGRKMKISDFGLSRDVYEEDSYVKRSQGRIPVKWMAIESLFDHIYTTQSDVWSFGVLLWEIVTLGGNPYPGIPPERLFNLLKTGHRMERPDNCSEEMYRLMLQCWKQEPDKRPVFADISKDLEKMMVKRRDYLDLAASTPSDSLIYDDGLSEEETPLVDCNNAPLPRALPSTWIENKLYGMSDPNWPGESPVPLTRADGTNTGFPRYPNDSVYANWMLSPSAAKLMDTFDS
# Protocol: as §1
# [3] = target: Proto-oncogene tyrosine-protein kinase receptor Ret [V804M] (Human, UniProt P07949, V804M)
# Chain of Proto-oncogene tyrosine-protein kinase receptor Ret [V804M] (P07949 29-1114 V804M limits assumed): as the sequence (P07949 29-1114 G810S limits assumed) above, with V776M, S782G counted along it
# Protocol: as §1
# Chain of Proto-oncogene tyrosine-protein kinase receptor Ret (P07949 whole entry, the tested form may be a part): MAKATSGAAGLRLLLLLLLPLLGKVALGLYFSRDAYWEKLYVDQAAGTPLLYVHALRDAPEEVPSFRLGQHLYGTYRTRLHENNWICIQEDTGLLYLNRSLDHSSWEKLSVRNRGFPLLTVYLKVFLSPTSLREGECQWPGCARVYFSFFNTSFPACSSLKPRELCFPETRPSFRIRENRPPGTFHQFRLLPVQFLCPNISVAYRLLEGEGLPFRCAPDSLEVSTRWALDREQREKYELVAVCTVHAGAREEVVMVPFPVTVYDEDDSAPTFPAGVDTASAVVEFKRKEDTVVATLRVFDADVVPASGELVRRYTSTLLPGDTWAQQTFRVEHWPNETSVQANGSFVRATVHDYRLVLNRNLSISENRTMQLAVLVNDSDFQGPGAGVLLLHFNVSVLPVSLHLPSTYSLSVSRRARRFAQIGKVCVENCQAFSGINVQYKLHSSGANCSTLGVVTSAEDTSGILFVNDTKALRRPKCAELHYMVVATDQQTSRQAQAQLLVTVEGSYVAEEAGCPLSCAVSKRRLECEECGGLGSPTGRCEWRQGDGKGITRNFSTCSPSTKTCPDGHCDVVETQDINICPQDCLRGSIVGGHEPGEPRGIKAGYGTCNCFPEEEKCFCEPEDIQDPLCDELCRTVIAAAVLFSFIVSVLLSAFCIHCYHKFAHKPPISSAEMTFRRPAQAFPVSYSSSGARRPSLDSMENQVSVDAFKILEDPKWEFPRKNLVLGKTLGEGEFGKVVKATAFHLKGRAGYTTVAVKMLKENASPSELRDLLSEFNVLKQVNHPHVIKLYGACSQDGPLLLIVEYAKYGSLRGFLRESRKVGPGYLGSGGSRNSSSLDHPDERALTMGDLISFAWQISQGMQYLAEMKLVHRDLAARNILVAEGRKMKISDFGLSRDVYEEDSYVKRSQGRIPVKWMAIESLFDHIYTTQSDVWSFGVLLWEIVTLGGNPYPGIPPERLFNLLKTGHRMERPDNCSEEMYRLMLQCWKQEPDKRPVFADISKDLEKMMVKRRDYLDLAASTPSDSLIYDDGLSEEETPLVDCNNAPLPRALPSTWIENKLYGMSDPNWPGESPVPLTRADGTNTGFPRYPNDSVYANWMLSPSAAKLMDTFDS
Compound,IC50 [1] [nM],IC50 [2] [nM],IC50 [3] [nM]
"CC(C)n1nc(-c2ccc(CC(=O)Nc3cc(CC4(C)CC4)no3)cc2)c(C(N)=O)c1N [WO2022098970, Example 1]",< 150,< 150,< 150
"CC(C)n1nc(-c2ccc(CC(=O)Nc3cc(C(C)(C)C(F)(F)F)no3)cc2)c(C(N)=O)c1N [WO2022098970, Example 2]",< 150,< 150,< 150
"CC(C)n1nc(-c2ccc(CC(=O)Nc3cc(C4(C)CCCC4)no3)cc2)c(C(N)=O)c1N [WO2022098970, Example 3]",< 150,< 150,< 150
"CC(C)n1nc(-c2ccc(CC(=O)Nc3cc(C45CC(F)(C4)C5)no3)cc2)c(C(N)=O)c1N [WO2022098970, Example 4]",< 150,< 150,< 150
"CC(C)n1nc(-c2ccc(CC(=O)Nc3cc(C45CC(C4)C5)no3)cc2)c(C(N)=O)c1N [WO2022098970, Example 5]",< 150,< 150,< 150
"CC1(n2nc(-c3ccc(CC(=O)Nc4cc(C(C)(C)C(F)(F)F)no4)cc3)c(C(N)=O)c2N)CC1 [WO2022098970, Example 6]",< 150,< 150,< 150
"CC(C)n1nc(-c2ccc(CC(=O)Nc3cc(C4(C)CC4)no3)cc2)c(C(N)=O)c1N [WO2022098970, Example 7]",< 150,< 150,< 150
"CC(C)n1nc(-c2ccc(CC(=O)Nc3cc(C(C)(C)C(F)(F)F)n(C)n3)cc2)c(C(N)=O)c1N [WO2022098970, Example 8]",< 150,< 150,< 150
"CC(C)n1nc(-c2ccc(CC(=O)NC3C=C(C(C)(C)C)SN3)cn2)c(C(N)=O)c1N (configuration not stated) [WO2022098970, Example 10]",< 150,< 150,< 150
"CC(C)n1nc(-c2ccc(CC(=O)Nc3cc(C45CC(C(F)(F)F)(C4)C5)no3)cc2)c(C(N)=O)c1N [WO2022098970, Example 153]",< 150,< 150,< 150
"CC(C)n1nc(-c2ccc(CC(=O)Nc3cc(CC(C)(C)C)no3)c(F)c2F)c(C(N)=O)c1N [WO2022098970, Example 154]",< 150,< 150,< 150
"CC1(n2nc(-c3ccc(CC(=O)Nc4cc(-c5ccc(F)cc5Cl)no4)cc3)c(C(N)=O)c2N)CC1 [WO2022098970, Example 199]",< 150,< 150,< 150
"CC1(n2nc(-c3ccc(CC(=O)Nc4cc(C56CC(F)(C5)C6)no4)c(F)c3F)c(C(N)=O)c2N)CC1 [WO2022098970, Example 221]",< 150,< 150,< 150
"CC12CC(c3cc(NC(=O)Cc4ccc(-c5nn(C6(C)CC6)c(N)c5C(N)=O)c(F)c4F)on3)(C1)C2 [WO2022098970, Example 222]",< 150,< 150,< 150
"CC(C)n1nc(-c2ccc(CC(=O)Nc3cccc(C(F)(F)F)c3)cn2)c(C(N)=O)c1N [WO2022098970, Example 292]",< 150,< 150,< 150
"CC(C)n1nc(-c2ccc(CC(=O)Nc3cc(C(C)(C)C(F)(F)F)on3)cn2)c(C(N)=O)c1N [WO2022098970, Example 293]",< 150,< 150,< 150
"CC(C)n1nc(-c2ccc(CC(=O)Nc3cc(C4(C)CCCC4)no3)cn2)c(C(N)=O)c1N [WO2022098970, Example 294]",< 150,< 150,< 150
"CC(C)n1nc(-c2ccc(CC(=O)Nc3cc(-c4ccccc4)no3)cn2)c(C(N)=O)c1N [WO2022098970, Example 299]",< 150,< 150,< 150

# More lines, now with the values ahead:
IC50 [1] [nM],IC50 [2] [nM],IC50 [3] [nM],Compound
< 150,< 150,< 150,"CC(C)n1nc(-c2ccc(CC(=O)Nc3cc(-c4ccc(Cl)cc4Cl)no3)cn2)c(C(N)=O)c1N [WO2022098970, Example 300]"
< 150,< 150,< 150,"CC(C)n1nc(-c2ccc(CC(=O)Nc3cc(C4CCCCC4)no3)cn2)c(C(N)=O)c1N [WO2022098970, Example 301]"
< 150,< 150,< 150,"CC(C)n1nc(-c2ccc(CC(=O)Nc3cc(-c4ccc(F)cc4Cl)no3)cn2)c(C(N)=O)c1N [WO2022098970, Example 302]"
< 150,< 150,< 150,"CCC(C)(C)c1cc(NC(=O)Cc2ccc(-c3nn(C(C)C)c(N)c3C(N)=O)nc2)on1 [WO2022098970, Example 303]"
< 150,< 150,< 150,"CC(C)n1nc(-c2ccc(CC(=O)Nc3cc(C(C)(F)F)no3)cn2)c(C(N)=O)c1N [WO2022098970, Example 306]"
< 150,< 150,< 150,"CC(C)n1nc(-c2cnc(CC(=O)Nc3cc(-c4ccc(Cl)cc4Cl)no3)cn2)c(C(N)=O)c1N [WO2022098970, Example 308]"
< 150,< 150,< 150,"CCC(C)(C)c1cc(NC(=O)Cc2cnc(-c3nn(C(C)C)c(N)c3C(N)=O)cn2)on1 [WO2022098970, Example 310]"
< 150,< 150,< 150,"CC(C)n1nc(-c2cnc(CC(=O)Nc3cc(C(C)(C)C)on3)cn2)c(C(N)=O)c1N [WO2022098970, Example 311]"
< 150,< 150,< 150,"CC(C)n1nc(-c2ccc(CC(=O)Nc3cc(-c4ccc(Cl)cc4Cl)no3)nc2)c(C(N)=O)c1N [WO2022098970, Example 316]"
< 150,< 150,< 150,"CC(C)n1nc(-c2ccc(CC(=O)Nc3cc(-c4ccccc4Cl)no3)nc2)c(C(N)=O)c1N [WO2022098970, Example 317]"
< 150,< 150,< 150,"CC(C)n1nc(-c2ccc(CC(=O)Nc3cc(C(C)(C)C)on3)nc2)c(C(N)=O)c1N [WO2022098970, Example 318]"
< 150,< 150,< 150,"CC(C)n1nc(-c2ccc(CC(=O)Nc3cc(-c4ccc(Cl)cc4F)no3)nc2)c(C(N)=O)c1N [WO2022098970, Example 321]"
< 150,< 150,< 150,"Cc1ccc(-c2cc(NC(=O)Cc3ccc(-c4nn(C(C)C)c(N)c4C(N)=O)cn3)on2)c(F)c1 [WO2022098970, Example 324]"
< 150,< 150,< 150,"CC(C)n1nc(-c2ccc(CC(=O)Nc3ccc(CN4CCN(C)CC4)c(C(F)(F)F)c3)nc2)c(C(N)=O)c1N [WO2022098970, Example 329]"
< 150,< 150,< 150,"CC(C)n1nc(-c2ccc(CC(=O)Nc3cc(-c4ccc(Cl)c(F)c4Cl)no3)nc2)c(C(N)=O)c1N [WO2022098970, Example 330]"
< 150,< 150,< 150,"CC(C)n1nc(-c2ccc(CC(=O)Nc3cc(C(C)(C)CC(F)(F)F)on3)nc2)c(C(N)=O)c1N [WO2022098970, Example 335]"
